Measured values as given in article PMC9953095, “Design, Synthesis and Biological Evaluation of Quinazolinamine Derivatives as Breast Cancer Resistance Protein and P-Glycoprotein Inhibitors with Improved Metabolic Stability” (Biomolecules, 2023).
Several values for one entry are separate records, joined by “and”; a condition that tells them apart may be missing. Equal entries are not always repeated.

Assays:
[1] = tested on: P-gp-mediated multidrug-resistant cell line KB-C2; assay: MTT reversal assay with paclitaxel, KB-C2 cells; assay type: cell-based, human; details: Figure 5A
Method: The human lung cancer cell line H460, and its MX-selected derivative BCRP-overexpressing cell line, H460/MX20, were used in this study. The KB-C2 cell line was selected by colchicine (Alfa Aesar, Haverhill, MA, USA) (2 μg/mL) with human cervical carcinoma cell line KB-3-1.
Cytotoxicity tests and reversal experiments were performed using the 3-(4,5-dimethylthiazol-2-yl)-2,5-diphenyltetrazolium bromide (MTT) colorimetric assay. Cells were seeded evenly into 96-well plates. […] To determine the MDR reversal efficacy of the quinazolinamine derivatives, an anticancer drug (mitoxantrone, colchicine, paclitaxel or cisplatin) was added into the designated wells after 2 h pre-incubation with a quinazolinamine derivative or a positive control inhibitor at non-toxic concentrations. After 72 h of drug incubation, the MTT reagent (4 mg/mL) was added into the wells, and then the plates were incubated for an additional 4 h. Subsequently, the supernatant was discarded and 100 µL of dimethyl sulfoxide (DMSO) was added to dissolve the formazan crystals. Cell viability was determined by measuring the absorbance by using an accuSkan™ GO UV/Vis Microplate Spectrophotometer (Fisher Sci., Fair Lawn, NJ, USA) at a wavelength of 570 nm.

H460 cells = assay: [3H]-mitoxantrone accumulation assay, H460; assay type: cell-based, human; details: parental H460 cells; compound 5 μM; Figure 6A
Method: (§1) To determine the accumulation of drugs on H460, H460/MX20, KB-3-1, and KB-C2 cells, the cells ([…] cells/well) were seeded in the 24-well plates and incubated at 37 °C with 5% CO2 [17]. After 12 h of incubation, a test compound (5 µM) was added and the plates were incubated at 37 °C for 2 h. Cells were then incubated with 0.01 µM [^3H]-MX or [^3H]-paclitaxel-containing medium for an additional 2 h at 37 °C, with or without a test compound. The cells were washed twice with ice-cold phosphate-buffered saline (PBS), trypsinized and lysed at the end of incubation. The radioactivity was measured using the Packard TRICARB1 1900A liquid scintillation analyzer.

[2] = tested on: BCRP-overexpressing H460/MX20 cells; assay: [3H]-mitoxantrone accumulation assay, H460/MX20; assay type: cell-based, human; details: resistant H460/MX20 cells; compound 5 μM; Figure 6A
Method: as §1

[3] = tested on: BCRP protein in H460/MX20 cells; assay: Western blot of BCRP expression in H460/MX20 cells; assay type: cell-based, human
Method: Cells in T25 flask were washed with ice-cold PBS. Lysis buffer (100 µL) was added into T25 flask. Using a cell scraper, scrape adherent cells were scraped off the flask and the cell suspension was transferred into a microcentrifuge tube (1.5 mL). Cells were agitated for 20 min at 4 °C and cell lysate was centrifuged mixture at 4 °C for 20 min at 12,000 rpm. The supernatant (lysate) was used for the gel electrophoresis. Equal amounts of total cell lysates (20 µg protein) were resolved by sodium dodecyl sulfate polyacrylamide gel electrophoresis (SDS-PAGE) and electrophoretically transferred onto polyvinylidene fluoride (PVDF) membranes. After incubation in a blocking solution (5% milk) for 2 h at room temperature, the membranes were incubated overnight with primary monoclonal antibodies against GAPDH (GA1R) (Invitrogen, Carlsbad, CA, USA) at 1:1000 dilution of BCRP protein (BXP 21) (Sigma-Aldrich, Inc., St. Louis, MO, USA) (1:1000) or P-gp (F4) (Sigma-Aldrich, Inc., St. Louis, MO, USA) at 4 °C, and were further incubated with horseradish […] (HRP)-conjugated secondary antibody (Thermo Fisher Scientific Inc., Waltham, MA, USA) at 1:1000 dilution for 2 h at room temperature. The protein antibody complex was detected using an enhanced chemiluminescence detection system. The grayscale ratio was analyzed by ImageJ and normalized by the grayscale of the ABC protein divided by that of GAPDH.

[4] = Metabolic stability with human liver microsomes; assay type: in vitro ADME; details: after 1 h of incubation with human liver microsomes, 37 °C, NADPH; also: tested at 200 µM
Method: Human liver microsome (20 mg/mL) 6.25 µL, nicotinamide adenine dinucleotide phosphate (NADPH) (0.75 µmol), MgCl2 (0.75 µmol), and the test compound (0.05 µmol) were added into a potassium phosphate buffer (pH 7.4) with 250 µL of final volume. The incubation was carried out aerobically at 37 °C. The mixture was pre-incubated without NADPH for 10 min at 37 °C and NADPH was added to start the reaction. At 1 h after the start of the reaction, an aliquot (50 µL) of the incubation mixture was taken from each incubation and mixed with 150 µL of ice-cold acetonitrile to terminate the reaction. Subsequently, the sample was centrifuged (12,000 rpm) at room temperature. The resulting supernatant was filtered and analyzed using HPLC (LC, Agilent 1200; column, HC-C18(2); column temperature, 25 °C; mobile phase, solvent A, methanol, solvent B, water; gradient elution, 30–99% solvent A; flow rate, 1 mL/min; UV signals were recorded at 254 nm).

KB-3-1 cells = assay: [3H]-paclitaxel accumulation assay, KB-3-1; assay type: cell-based, human; details: parental cells KB-3-1; compound 5 μM; Figure 6B
Method: as §1

In the case of `c1ccc2c(Nc3ccc(C4CC4)cc3)nc(-c3ccncc3)nc2c1` [Compound 22, N-(4-Cyclopropylphenyl)-2-(pyridin-4-yl)quinazolin-4-amine], the sensitization to paclitaxel [1] is reported as “could sensitize KB-C2 cells”, the accumulation of mitoxantrone (H460 cells) is reported as “slightly increase” and the accumulation of mitoxantrone [2] is reported as “increased the accumulation”. For the same molecule, the “BCRP protein expression level in the cytoplasm” value ([3]; H460/MX20 cytoplasm fraction, Figure 9B) was “increased”, the “expression level of BCRP protein on the membrane” value ([3]; H460/MX20 membrane fraction, Figure 9A) was “decreased” and the “expression level of BCRP protein” value ([3]; H460/MX20 total cell lysate, Figure 7) was “did not change the expression level”. The “Metabolic Stability, % compound remaining” value [4] was 92% and 92 ± 8% and the accumulation of paclitaxel (KB-3-1 cells) was “did not increase”.
